Assay results published in US5648378A, “2-iminochromene derivatives as inhibitors of protein tyrosine kinase” (Research Corporation Technologies, Inc., priority 1995, dated 1997).
Values after ≈ are worked out from the molar mass of the structure shown. “Also recorded” adds a separate entry of the source.

Columns and labels:
p60^c-src = target: T1, p60^c-src (Homo sapiens, UniProt P12931); experiment: kinase assay, purified p60c-src, poly [Glu,Tyr](4:1) substrate; format: biochemical; settings: for IC50, p60^c-src: purified kinase, poly [Glu,Tyr](4:1) substrate; for potency relative to the hydroxylated parent compound (in words): hydroxymethyl versus hydroxy N-phenyl analogue
T1 construct: purchased Upstate Biotechnology Inc
T1 sequence (P12931 whole entry): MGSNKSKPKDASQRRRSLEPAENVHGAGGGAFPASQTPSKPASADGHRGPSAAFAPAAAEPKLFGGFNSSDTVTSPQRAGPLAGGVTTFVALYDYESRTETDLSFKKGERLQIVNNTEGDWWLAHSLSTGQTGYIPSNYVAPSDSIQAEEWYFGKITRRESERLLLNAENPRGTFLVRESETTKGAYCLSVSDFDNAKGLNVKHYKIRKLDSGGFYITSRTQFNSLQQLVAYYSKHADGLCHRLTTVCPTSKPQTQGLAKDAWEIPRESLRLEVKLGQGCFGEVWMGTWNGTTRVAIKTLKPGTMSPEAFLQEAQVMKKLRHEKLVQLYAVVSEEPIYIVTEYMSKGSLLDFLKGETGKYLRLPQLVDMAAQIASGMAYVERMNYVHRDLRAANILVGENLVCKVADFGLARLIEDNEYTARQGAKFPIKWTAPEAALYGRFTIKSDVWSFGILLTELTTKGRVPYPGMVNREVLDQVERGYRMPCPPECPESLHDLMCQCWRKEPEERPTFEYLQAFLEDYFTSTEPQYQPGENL
Description: (§1) Purified p60^c-scr and Src-family kinases p56^lck, p56^lyn, and p55^fyn were obtained from Upstate Biotechnology Inc. Kinase assays were performed as described by A. Gezit, J. Med.

p56^lyn = target: T2, p56^lyn (Homo sapiens, UniProt P07948); experiment: kinase assay, p56lyn; format: biochemical; settings: poly [Glu,Tyr](4:1) substrate
T2 construct: purchased Upstate Biotechnology Inc
T2 sequence (P07948 whole entry, species assumed): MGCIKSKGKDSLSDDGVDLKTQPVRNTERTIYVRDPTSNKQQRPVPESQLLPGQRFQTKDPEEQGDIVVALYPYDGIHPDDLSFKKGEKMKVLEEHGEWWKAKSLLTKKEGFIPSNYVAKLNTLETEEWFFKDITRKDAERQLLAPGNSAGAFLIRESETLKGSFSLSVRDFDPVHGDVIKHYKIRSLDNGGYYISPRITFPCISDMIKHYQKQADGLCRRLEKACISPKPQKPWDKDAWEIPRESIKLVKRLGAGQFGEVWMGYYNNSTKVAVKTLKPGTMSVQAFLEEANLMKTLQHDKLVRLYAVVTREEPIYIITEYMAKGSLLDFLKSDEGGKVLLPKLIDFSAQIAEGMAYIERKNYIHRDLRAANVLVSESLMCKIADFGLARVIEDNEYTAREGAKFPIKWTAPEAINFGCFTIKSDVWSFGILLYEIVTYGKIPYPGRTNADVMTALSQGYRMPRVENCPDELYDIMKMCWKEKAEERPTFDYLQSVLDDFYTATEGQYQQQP
Description: as §1

HL-60 cells = experiment: cell growth inhibition, HL-60 promyelocytic leukemia; format: cell-based; settings: Homo sapiens, HL-60, 72 h; 3 days, Trypan Blue viable cell count
Description: (§2) The source of the cancer cell lines were: HL-60, HT-29, and BT-20, from American Type Culture Collection, Rockville, Maryland; A-1 from Dr. M. H. Freedman, MG-63, from Dr. M. Hurley, and human fibroblast from Dr. R. Zeff. Cells were grown in the culture treated with or without various compounds for 3 days. Cells (except BT-20) were then recovered and treated with Trypan Blue and the number of viable cells counted. For BT-20 cells, a new rapid and simple method using Alamar Blue Assay was used, as described by S. A. Ahmed et al., J. Immunol. Meth., 170, 211 (1994). The symbol i on the Table indicates "not
(§3) As shown on Table 3, several compounds of formula (I) were tested for their ability to inhibit the growth of human cancer cells including promyelocytic leukemia HL-60 cells (S. J. Collins et al., Blood, 70, 1233 (1987)); acute lymphocytic leukemia A-1 cells, (S. Kamel-Reid et al., Leukemia, 6, 8 (1992)); human osteosarcoma MG-63, (A. Pirskanen et al., J. Bone and Mineral Res., 1635 (1994)); human breast carcinoma BT-20 (G. G. Castles et al., Cancer Res., 58, 5934 (1992)); and human colon adenocarcinoma HT-29 cells (R. Garcia et al., Oncogene, 6, 1983 (1991)).

A-1 cells = experiment: cell growth inhibition, A-1 acute lymphocytic leukemia; format: cell-based; settings: Homo sapiens, 72 h; 3 days, Trypan Blue viable cell count
Description: as §2

BT-20 = experiment: cell growth inhibition, BT-20 breast carcinoma (Alamar Blue); format: cell-based; settings: Homo sapiens, BT-20, 72 h, 3 days, Alamar Blue Assay
Description: as §2, §3

p56^lck = target: T3, p56^lck (Homo sapiens, UniProt P06239); experiment: kinase assay, p56lck; format: biochemical; settings: poly [Glu,Tyr](4:1) substrate
T3 construct: purchased Upstate Biotechnology Inc
T3 sequence (P06239 whole entry, species assumed): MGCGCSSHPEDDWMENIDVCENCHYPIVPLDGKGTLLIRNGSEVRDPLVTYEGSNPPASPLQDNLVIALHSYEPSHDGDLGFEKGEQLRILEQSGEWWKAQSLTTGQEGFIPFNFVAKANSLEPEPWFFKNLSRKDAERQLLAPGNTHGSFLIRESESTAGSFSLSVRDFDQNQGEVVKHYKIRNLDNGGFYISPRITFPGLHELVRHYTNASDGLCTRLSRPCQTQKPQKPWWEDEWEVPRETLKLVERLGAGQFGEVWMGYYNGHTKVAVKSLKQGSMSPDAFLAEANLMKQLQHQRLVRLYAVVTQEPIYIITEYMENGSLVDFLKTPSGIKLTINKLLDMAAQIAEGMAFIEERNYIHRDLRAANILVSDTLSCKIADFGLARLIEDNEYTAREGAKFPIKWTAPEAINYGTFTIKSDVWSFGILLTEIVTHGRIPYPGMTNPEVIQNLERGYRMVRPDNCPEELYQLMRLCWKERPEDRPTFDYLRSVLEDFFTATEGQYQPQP
Description: as §1

p55^fyn = experiment: kinase assay, p55fyn; format: biochemical; settings: poly [Glu,Tyr](4:1) substrate
Description: as §1

MG-63 = experiment: cell growth inhibition, MG-63 osteosarcoma; format: cell-based; settings: Homo sapiens, MG-63, 72 h; 3 days, Trypan Blue viable cell count
Description: as §2, §3

HT-29 cells = experiment: cell growth inhibition, HT-29 colon adenocarcinoma; format: cell-based; settings: Homo sapiens, HT-29, 72 h; 3 days, Trypan Blue viable cell count
Description: as §2, §3

[1] = test system: human cancer cells (HL-60, A-1, MG-63, BT-20, HT-29); experiment: inhibition of growth of human cancer cell lines, overall comparison; format: cell-based; settings: 9TA, 18TA compared with e.g. 9TO, 18TO
Description: as §2, §3

Human fibroblasts cells = experiment: cell growth inhibition, human fibroblasts; format: cell-based; settings: for IC50: Homo sapiens, Fibroblast, 72 h, 3 days, Trypan Blue viable cell count
Description: as §2

melanoma = settings: 50 mg/day; Thornes et al. (1994); cited from earlier work

SMILES	IC50, p60^c-src (p60^c-src) [µg/mL]	IC50 (HL-60 cells) [µg/mL]	IC50 (A-1 cells) [µg/mL]	IC50 (BT-20) [µg/mL]	IC50, p55^fyn (p55^fyn) [µg/mL]	IC50, p56^lck (p56^lck) [µg/mL]	IC50 (HT-29 cells) [µg/mL]	also measured
N=c1oc2ccc(O)cc2cc1C(=O)Nc1cccc(O)c1 [Compound 7TA]	1.3 (≈ 4.39 µM)	6.5 (≈ 21.9 µM)	4.5 (≈ 15.2 µM)	–	–	–	–	IC50 (p56^lyn): > 33.8 µM
N=c1oc2ccc(O)cc2cc1C(=O)Nc1ccc(O)cc1 [Compound 7T]	3.2 (≈ 10.8 µM)	4.2 (≈ 14.2 µM)	3 (≈ 10.1 µM)	4.5 (≈ 15.2 µM)	–	–	–	–
N=c1oc2cc(O)ccc2cc1C(=O)Nc1cccc(O)c1 [Compound 8TA]	9 (≈ 30.4 µM)	3.3 (≈ 11.1 µM)	–	–	–	–	–	IC50 (p56^lyn): > 33.8 µM
N=c1oc2cc(O)ccc2cc1C(=O)Nc1ccccc1O [Compound 8TO]	0.6 (≈ 2.03 µM)	8 (≈ 27 µM)	–	–	–	–	–	–
N=c1oc2cc(O)ccc2cc1C(=O)Nc1ccc(O)cc1 [Compound 8T]	1.2 (≈ 4.05 µM)	5 (≈ 16.9 µM)	5 (≈ 16.9 µM)	14 (≈ 47.3 µM)	–	–	–	–
N=c1oc2c(O)cccc2cc1C(=O)Nc1cccc(CO)c1 [Compound 9TABA]	2.5 (≈ 8.06 µM)	–	11 (≈ 35.4 µM)	–	3 (≈ 9.67 µM)	–	–	potency relative to the hydroxylated parent compound (in words) (p60^c-src; p60^c-src): not more potent; IC50 (p56^lck): 64.5 µM; IC50 (MG-63): > 20 µg/mL
N=c1oc2c(O)cccc2cc1C(=O)Nc1cccc(O)c1 [Compound 9TA]	0.035 (≈ 0.118 µM)	10 (≈ 33.8 µM)	6 (≈ 20.3 µM)	–	–	0.62 (≈ 2.09 µM)	20 (≈ 67.5 µM)	inhibition of p60^c-src kinase (in words) (p60^c-src): strong inhibitory effect; inhibition of cancer cell growth (in words) [1]: not as potent
N=c1oc2c(O)cccc2cc1C(=O)Nc1ccccc1CO [Compound 9TOBA]	1.8 (≈ 5.8 µM)	6 (≈ 19.3 µM)	–	–	–	–	–	potency relative to the hydroxylated parent compound (in words) (p60^c-src; p60^c-src): much more potent; IC50 (MG-63): 5 µg/mL (≈ 16.1 µM)
N=c1oc2c(O)cccc2cc1C(=O)Nc1ccccc1O [Compound 9TO]	–	1.5 (≈ 5.06 µM)	1.9 (≈ 6.41 µM)	–	> 20	1.2 (≈ 4.05 µM)	4 (≈ 13.5 µM)	inhibition of p60^c-src kinase (in words) (p60^c-src): relatively weak activity
N=c1oc2c(O)cccc2cc1C(=O)Nc1ccc(O)cc1 [Compound 9T]	–	2.5 (≈ 8.44 µM)	–	7 (≈ 23.6 µM)	> 20	0.62 (≈ 2.09 µM)	4 (≈ 13.5 µM)	IC50, p56^lyn (p56^lyn): 20 µg/mL (≈ 67.5 µM); IC50 (MG-63): 1.25 µg/mL (≈ 4.22 µM)
COc1ccc2cc(C(=O)Nc3ccc(O)cc3)c(=N)oc2c1 [Compound 15T]	–	7.5 (≈ 24.2 µM)	–	> 20	–	–	–	fold less active than 8T (p60^c-src; p60^c-src, versus 8T): 8 fold
COc1ccc2oc(=N)c(C(=O)Nc3ccc(O)cc3)cc2c1 [Compound 16T]	12.5 (≈ 40.3 µM)	5 (≈ 16.1 µM)	–	> 20	–	7.5 (≈ 24.2 µM)	–	fold less active than 7T (p60^c-src; p60^c-src, versus 7T): 4 fold
CC(=O)c1cccc(NC(=O)c2cc3ccc(O)c(O)c3oc2=N)c1 [Compound 18ACTA]	3 (≈ 8.87 µM)	–	15 (≈ 44.3 µM)	–	–	–	–	IC50, p56^lyn (p56^lyn): 10 µg/mL (≈ 29.6 µM)
N=c1oc2c(O)c(O)ccc2cc1C(=O)Nc1ccccc1 [Compound 18AN]	–	> 20	17 (≈ 57.4 µM)	–	> 20	–	–	inhibition of p60^c-src kinase (in words) (p60^c-src): inactive; inhibition of cancer cell growth (in words) [1]: less active
N=c1oc2c(O)c(O)ccc2cc1C(=O)Nc1cccc(CO)c1 [Compound 18TABA]	5 (≈ 15.3 µM)	2.5 (≈ 7.66 µM)	2.5 (≈ 7.66 µM)	–	> 20	–	–	potency relative to the hydroxylated parent compound (in words) (p60^c-src; p60^c-src): not more potent; IC50, p56^lyn (p56^lyn): 20 µg/mL (≈ 61.3 µM)
N=c1oc2c(O)c(O)ccc2cc1C(=O)Nc1cccc(O)c1 [Compound 18TA]	0.225 (≈ 0.721 µM)	9 (≈ 28.8 µM)	20 (≈ 64 µM)	–	> 20	20 (≈ 64 µM)	> 20	inhibition of p60^c-src kinase (in words) (p60^c-src): strong inhibitory effect; fold more potent than 18AN (p60^c-src; p60^c-src, versus 18AN): 88 fold; IC50, p56^lyn (p56^lyn): 18 µg/mL (≈ 57.6 µM); inhibition of cancer cell growth (in words) [1]: not as potent
N=c1oc2c(O)c(O)ccc2cc1C(=O)Nc1ccccc1CO [Compound 18TOBA]	0.9 (≈ 2.76 µM)	6 (≈ 18.4 µM)	> 20	–	> 20	5 (≈ 15.3 µM)	–	potency relative to the hydroxylated parent compound (in words) (p60^c-src; p60^c-src): much more potent
N=c1oc2c(O)c(O)ccc2cc1C(=O)Nc1ccccc1O [Compound 18TO]	12 (≈ 38.4 µM)	2 (≈ 6.4 µM)	2 (≈ 6.4 µM)	–	> 20	20 (≈ 64 µM)	15 (≈ 48 µM)	inhibition of p60^c-src kinase (in words) (p60^c-src): relatively weak activity
N=c1oc2c(O)c(O)ccc2cc1C(=O)Nc1ccc(O)cc1 [Compound 18T]	3.6 (≈ 11.5 µM)	3.5 (≈ 11.2 µM)	8 (≈ 25.6 µM)	7.2 (≈ 23.1 µM)	> 20	5 (≈ 16 µM)	20 (≈ 64 µM)	–
N=c1oc2cc(O)cc(O)c2cc1C(=O)Nc1cccc(O)c1 [Compound 19TA]	1.25 (≈ 4 µM)	2.5 (≈ 8.01 µM)	15 (≈ 48 µM)	> 20	–	3.75 (≈ 12 µM)	10 (≈ 32 µM)	IC50, p56^lyn (p56^lyn): 5 µg/mL (≈ 16 µM); inhibition of growth of human fibroblast cells (in words) (Human fibroblasts cells): not effective; IC50 (Human fibroblasts cells): > 20 µg/mL; IC50 (MG-63): 5 µg/mL (≈ 16 µM)
N=c1oc2cc(O)cc(O)c2cc1C(=O)Nc1ccccc1O [Compound 19TO]	2.1 (≈ 6.72 µM)	5 (≈ 16 µM)	2.5 (≈ 8.01 µM)	> 20	–	–	0.625 (≈ 2 µM)	inhibition of growth of human fibroblast cells (in words) (Human fibroblasts cells): not effective; IC50 (Human fibroblasts cells): > 20 µg/mL; IC50 (MG-63): 2.5 µg/mL (≈ 8.01 µM)
N=c1oc2cc(O)cc(O)c2cc1C(=O)Nc1ccc(O)cc1 [Compound 19T]	0.2 (≈ 0.64 µM)	1 (≈ 3.2 µM)	1 (≈ 3.2 µM)	–	–	2 (≈ 6.4 µM)	2.5 (≈ 8.01 µM)	fold more potent than the parent compound 25T (p60^c-src; p60^c-src, versus 25T): 200 fold; IC50, p56^lyn (p56^lyn): 5 µg/mL (≈ 16 µM); inhibition of growth of human fibroblast cells (in words) (Human fibroblasts cells): not effective; IC50 (Human fibroblasts cells): > 20 µg/mL
N=c1oc2ccccc2cc1C(=O)Nc1ccc(O)cc1 [Compound 25T, 3-(N-4-hydroxyphenyl)carbamoyl-2-iminochromene]	–	> 10	–	10 (≈ 35.7 µM)	–	–	–	inhibition of p60^c-src kinase (in words) (p60^c-src): poorly inhibits; also recorded: inactive; inhibition of cancer cell growth (in words) [1]: less active
N=c1oc2ccccc2cc1C(=O)Nc1cccc(O)c1 [Compound 25TA]	10 (≈ 35.7 µM)	–	–	–	–	–	–	–
COc1cccc2cc(C(=O)Nc3cccc(O)c3)c(=N)oc12 [Compound 32TA]	1.3 (≈ 4.19 µM)	–	12 (≈ 38.7 µM)	–	–	–	–	–
O=c1ccc2ccccc2o1 [coumarin]	–	–	–	–	–	–	–	effect against melanoma (in words) (melanoma): effective against melanoma
